Structures are written as SMILES. Where two headings read alike, the source gives them in different places.

The target in assay [1] is HuNV GGII.4 Norovirus protease (Norovirus GII.4 (human norovirus genogroup II genotype 4), UniProt P54634). Briefly: Norovirus protease FRET assay (HuNV GGII.4). Conditions: FRET protease assay, read-out: HuNV GGII.4 IC50. In kind it is biochemical.
Assay [2] has as its target Norwalk GGI.1 Norovirus protease (Norovirus, UniProt Q83883). Briefly: Noro-Norwalk FRET protease assay (Norwalk GGI.1). The format is biochemical, Norwalk virus. The following applies: FRET protease assay, read-out: Norwalk GGI.1 IC50. As to the method:
(§1) Viral protease assays: The antiviral activities of inhibitors were determined by FRET (Fluorescence Resonance Energy Transfer) assay. Purified viral protease was incubated with the protease substrate peptide (Edans-DFHLQ/GP-Dabcyl) and inhibitor, and IC50 values were subsequently determined by the fluorescence signals.
The Noro-Norwalk FRET protease assay was performed in 50 mM HEPES-Na pH 8, 50 mM NaCl, 0.4 mM EDTA, 4% glycerol, and 6 mM DTT. A self-quenching peptide substrate [5-FAM]-[…]-[TAMRA] was custom synthesized by Anaspec. Compounds were diluted in 3-fold serial dilutions to final concentrations of 200 μM to 10.2 nM. Noro protease was added to a final concentration of 1-7 μM, depending on the enzyme activity level, and the peptide substrate was added to a final concentration of 10 μM. The assay was incubated 90 minutes at 37° C. and read in a Perkin Elmer Envision with excitation at 473 nm and emission measurement at 519 nm.

A further assay concerns the target SARS2 protease (Severe acute respiratory syndrome coronavirus 2, UniProt P0DTD1). Description: SARS-CoV-2 protease inhibition assay (SARS2 FRET protease assay). In kind it is biochemical. The following applies: Table E; SARS-CoV-2 protease inhibition; read-out: IC50. As for the experimental part:
as §1
The SARS2 FRET protease assay was performed in 20 mM HEPES-Na pH 7, 120 mM NaCl, 0.4 mM EDTA, 0.01% Triton, 5% glycerol, and 4 mM DTT. A self-quenching peptide substrate 5-FAM-TSA VLQ SGF RKK (5TAMRA)-NH2 was custom synthesized by Anaspec. Compounds were diluted in 3-fold serial dilutions to final concentrations of 20 μM to 1.0 nM. SARS2 protease was added to a final concentration of 25 nM, depending on the enzyme activity level, and the peptide substrate was added to a final concentration of 1.3 μM. The assay was incubated 30 minutes at 30° C. and read in a Perkin Elmer Envision with excitation at 473 nm and emission measurement at 519 nm.

Sequence of HuNV GGII.4 Norovirus protease (P54634 1009-1189): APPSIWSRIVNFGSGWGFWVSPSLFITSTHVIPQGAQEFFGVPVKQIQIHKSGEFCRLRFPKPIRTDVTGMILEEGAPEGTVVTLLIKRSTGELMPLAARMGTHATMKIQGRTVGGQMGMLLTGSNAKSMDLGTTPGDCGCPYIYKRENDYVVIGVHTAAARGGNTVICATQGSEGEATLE
Sequence of Norwalk GGI.1 Norovirus protease (Q83883 1101-1281): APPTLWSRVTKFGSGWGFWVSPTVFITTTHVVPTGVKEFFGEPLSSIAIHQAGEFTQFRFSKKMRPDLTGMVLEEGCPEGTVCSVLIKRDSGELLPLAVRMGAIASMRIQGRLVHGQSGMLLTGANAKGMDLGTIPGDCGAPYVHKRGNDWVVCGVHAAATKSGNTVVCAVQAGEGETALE

Turning to `CCOP(=O)(OCC)C(O)[C@H](CCC(=O)N(CC)CCc1ccccc1)NC(=O)[C@H](CC1CCCCC1)NC(=O)OCc1cccc(Cl)c1` (stereo partly drawn) [Compound A50, 3-Chlorobenzyl ((2S)-3-cyclohexyl-1-(((2S)-1-(diethoxyphosphoryl)-5-(ethyl(phenethyl)amino)-1-hydroxy-5-oxopentan-2-yl)amino)-1-oxopropan-2-yl)carbamate], the concentration for half-maximal inhibition (IC50) worked out at 95.7 µM in assay [1] (Table C), 97.4 µM in assay [2] (Table C) and 9.7 µM at SARS2 protease.

As to `CCOP(=O)(OCC)C(O)[C@H](CCC(=O)N1CCOC(c2ccccc2)C1)NC(=O)[C@H](CC1CCCCC1)NC(=O)OCc1cccc(Cl)c1` (stereo partly drawn) [Compound A54, 3-Chlorobenzyl ((2S)-3-cyclohexyl-1-(((2S)-1-(diethoxyphosphoryl)-1-hydroxy-5-oxo-5-(2-phenylmorpholino)pentan-2-yl)amino)-1-oxopropan-2-yl)carbamate], the IC50 was determined as 161 µM in assay [1] (Table C), 36.3 µM in assay [2] (Table C) and 19 µM on SARS2 protease.

Turning to `CN(CCc1ccccc1)C(=O)CC[C@H](NC(=O)[C@H](CC1CCCCC1)NC(=O)OCc1cccc(Cl)c1)C(O)S(=O)(=O)O` (stereo in doubt) [Compound A114, Sodium (2S)-2-((S)-2-((((3-chlorobenzyl)oxy)carbonyl)amino)-3-cyclohexylpropanamido)-1-hydroxy-5-(methyl (phenethyl)amino)-5-oxopentane-1-sulfonate], the IC50 stood at 12.1 µM in assay [1] (Table C) and 5.2 µM in assay [2] (Table C).

`CN(C(=O)CC[C@@H](C=O)NC(=O)[C@H](CC1CCCCC1)NC(=O)OCc1cccc(Cl)c1)c1ccccc1` [Compound A19, 3-Chlorobenzyl ((S)-3-cyclohexyl-1-(((S)-5-(methyl (phenyl)amino)-1,5-dioxopentan-2-yl)amino)-1-oxopropan-2-yl) carbamate]: the IC50 came to 3.3 µM in assay [1] (Table C), 1 µM in assay [2] (Table C) and 40.3 µM on SARS2 protease.

`CCOP(=O)(OCC)C(O)[C@H](CCC(=O)N(C)CCc1ccccc1)NC(=O)[C@H](CC1CCCCC1)NC(=O)OCc1cccc(Cl)c1` (stereo partly drawn) [Compound A15, 3-Chlorobenzyl ((2S)-3-cyclohexyl-1-(((2S)-1-(diethoxyphosphoryl)-1-hydroxy-5-(methyl(phenethyl)amino)-5-oxopentan-2-yl)amino)-1-oxopropan-2-yl)carbamate]: the results for the concentration for half-maximal inhibition (IC50) (in assay [1] (Table C); in assay [2] (Table C); at SARS2 protease) were 139 µM, greater than 200 µM and greater than 200 µM, respectively.

In the case of `CCOCCN(C)C(=O)CC[C@H](NC(=O)C(CC1CCCCC1)NC(=O)OCc1cccc(Cl)c1)C(O)P(=O)(OCC)OCC` (stereo in doubt) [Compound A12, 3-chlorobenzyl ((2S)-3-cyclohexyl-1-(((2S)-1-(diethoxyphosphoryl)-5-((2-ethoxyethyl)(methyl)amino)-1-hydroxy-5-oxopentan-2-yl)amino)-1-oxopropan-2-yl)carbamate], the half-maximal inhibitory concentration (IC50) in assay [1] (Table C) is greater than 200 µM; in assay [2] (Table C), 122 µM; on SARS2 protease, 5.4 µM.

`CCCCCCCC1CCC/C=C/CC(C(=O)N(C)C)C[C@@H](C=O)NC(=O)C(CC(C)C)NC1=O` (stereo partly shown) [Compound B4]: the 50% inhibitory concentration (IC50) in assay [1] (Table D) was determined as 149 µM; in assay [2] (Table D), 149 µM; on SARS2 protease, 156 µM.

`CCNC(=O)CN(C)C(=O)CC[C@@H](C=O)NC(=O)[C@H](CC1CCCCC1)NC(=O)OCc1cccc(Cl)c1` [Compound A27, 3-Chlorobenzyl ((S)-3-cyclohexyl-1-(((S)-5-((2-(ethylamino)-2-oxoethyl) (methyl)amino)-1,5-dioxopentan-2-yl)amino)-1-oxopropan-2-yl)carbamate]: the values for the IC50 (in assay [1] (Table C); in assay [2] (Table C); on SARS2 protease) were 11.3 µM, 2.7 µM and 137 µM, respectively.

As to `O=C[C@H](CCC(=O)N1CCOCc2ccccc21)NC(=O)[C@H](CC1CCCCC1)NC(=O)OCc1cccc(Cl)c1` [Compound A108, 3-Chlorobenzyl ((S)-3-cyclohexyl-1-(((S)-5-(2,3-dihydrobenzo[e][1,4]oxazepin-1(5H)-yl)-1,5-dioxopentan-2-yl)amino)-1-oxopropan-2-yl)carbamate], the IC50 in assay [1] (Table C) came to 13.4 µM; in assay [2] (Table C), 8 µM.

Regarding `CN(CCc1ccncc1)C(=O)CC[C@@H](C=O)NC(=O)[C@H](CC1CCCCC1)NC(=O)OCc1cccc(Cl)c1` [Compound A68, 3-Chlorobenzyl ((S)-3-cyclohexyl-1-(((S)-5-(methyl (2-(pyridin-4-yl)ethyl)amino)-1,5-dioxopentan-2-yl)amino)-1-oxopropan-2-yl) carbamate], the 50% inhibitory concentration (IC50) worked out at 16.7 µM in assay [1] (Table C) and 4.6 µM in assay [2] (Table C).

For the compound `O=C[C@H](CCC(=O)N1CCc2ccccc2CC1)NC(=O)[C@H](CC1CCCCC1)NC(=O)OCc1cccc(Cl)c1` (stereo in doubt) [Compound A118, 3-Chlorobenzyl ((S)-3-cyclohexyl-1-(((S)-1,5-dioxo-5-(1,2,4,5-tetrahydro-3H-benzo[d]azepin-3-yl)pentan-2-yl)amino)-1-oxopropan-2-yl)carbamate], the IC50 worked out at 74.2 µM in assay [1] (Table C) and 6.6 µM in assay [2] (Table C).

Regarding `O=C[C@H](CCC(=O)N1CCCCc2ccccc21)NC(=O)[C@H](CC1CCCCC1)NC(=O)OCc1cccc(Cl)c1` [Compound A107, 3-Chlorobenzyl ((S)-3-cyclohexyl-1-(((S)-1,5-dioxo-5-(2,3,4,5-tetrahydro-1H-benzo[b]azepin-1-yl)pentan-2-yl)amino)-1-oxopropan-2-yl)carbamate], the figures for the IC50 in assay [1] (Table C) and in assay [2] (Table C) were 200 µM and 39.6 µM, respectively.

In the case of `O=C[C@H](CCC(=O)N1CCOc2ccccc2C1)NC(=O)[C@H](CC1CCCCC1)NC(=O)OCc1cccc(Cl)c1` [Compound A57, 3-Chlorobenzyl ((S)-3-cyclohexyl-1-(((S)-5-(2,3-dihydrobenzo[f][1,4]oxazepin-4(5H)-yl)-1,5-dioxopentan-2-yl)amino)-1-oxopropan-2-yl)carbamate], the IC50 worked out at 2.6 µM in assay [1] (Table C) and 2.3 µM in assay [2] (Table C).

`CCOC(=O)NCCN(C)C(=O)CC[C@H](NC(=O)[C@H](CC1CCCCC1)NC(=O)OCc1cccc(Cl)c1)C(O)P(=O)(OCC)OCC` (stereo partly drawn) [Compound A31, 3-Chlorobenzyl ((12S,15S)-16-cyclohexyl-12-((diethoxyphosphoryl)(hydroxy)methyl)-8-methyl-4,9,14-trioxo-3-oxa-5,8,13-triazahexadecan-15-yl)carbamate]: the IC50 at SARS2 protease was determined as 46 µM.

Turning to `CCCCCCCC1CCCCCC(C(=O)N(C)C)CC(C=O)NC(=O)[C@H](CC(C)C)NC1=O` (stereo in doubt) [Compound B18, (2S,5S)-5-formyl-13-heptyl-2-isobutyl-N,N-dimethyl-3,14-dioxo-1,4-diazacyclotetradecane-7-carboxamide], at SARS2 protease, the 50% inhibitory concentration (IC50) is greater than 200 µM.

With `CCCCCCCC1CC/C=C/CC(C(=O)NC)C[C@@H](C(=O)N(C)OC)NC(=O)C(CC(C)C)NC(=O)O1` (single isomer, unassigned) [Compound B35], at SARS2 protease, the IC50 was greater than 200 µM.

With `CC(C)C[C@@H]1NC(=O)OC(Cc2ccccc2)CCCCCC(C(=O)N(C)C)CC(C=O)NC1=O` (stereo in doubt) [Compound B44, (4S,7S)-15-benzyl-7-formyl-4-isobutyl-N,N-dimethyl-2,5-dioxo-1-oxa-3,6-diazacyclopentadecane-9-carboxamide], at SARS2 protease, the IC50 amounted to 185 µM.

As for `CCNC(=O)CN(C)C(=O)CC[C@H](NC(=O)[C@H](CC1CCCCC1)NC(=O)OCc1cccc(Cl)c1)C(O)P(=O)(OCC)OCC` (stereo partly drawn) [Compound A17, 3-Chlorobenzyl ((2S)-3-cyclohexyl-1-(((2S)-1-(diethoxyphosphoryl)-5-((2-(ethylamino)-2-oxoethyl) (methyl)amino)-1-hydroxy-5-oxopentan-2-yl)amino)-1-oxopropan-2-yl) carbamate], the IC50 on SARS2 protease was found to be 169 µM.

As for `CCOP(=O)(OCC)C(O)[C@H](CCC(=O)N1CCCCc2ccccc21)NC(=O)[C@H](CC1CCCCC1)NC(=O)OCc1cccc(Cl)c1` (stereo partly drawn) [Compound A55, 3-Chlorobenzyl ((2S)-3-cyclohexyl-1-(((2S)-1-(diethoxyphosphoryl)-1-hydroxy-5-oxo-5-(2,3,4,5-tetrahydro-1H-benzo[b]azepin-1-yl)pentan-2-yl)amino)-1-oxopropan-2-yl)carbamate], the half-maximal inhibitory concentration (IC50) at SARS2 protease is greater than 200 µM.

For the compound `CCNC(=O)NCCN(C)C(=O)CC[C@@H](CO)NC(=O)[C@H](CC1CCCCC1)NC(=O)OCc1cccc(Cl)c1` [Compound A100, 3-Chlorobenzyl ((12S,15S)-16-cyclohexyl-12-(hydroxymethyl)-8-methyl-4,9,14-trioxo-3,5,8,13-tetraazahexadecan-15-yl)carbamate], the IC50 on SARS2 protease is greater than 200 µM.

Usually IC50 stands for the midpoint of a concentration-inhibition curve.

These data come from US20230151034A1 (COCRYSTAL PHARMA, INC., priority 2020, published 2023).
